Experimental data reported in US20120135002A1, “Compounds and Methods for the Treatment of Cancer” (priority 2009, published 2012).

Columns and labels:
HL60 = assay: Transcriptome (microarray) analysis of treated HL60 cells; format: cell-based, human; settings: for number of genes modulated by the three different agents: HL60 cell line, genes affected by DFO, DFX and mAb A24 together
AML cells lines = assay: CD14 and CD11b monocytic marker expression in AML cell lines; format: cell-based
Procedure: Peripheral blood cells from AML patients and healthy donors was analyzed after obtaining their written informed consent (please refer to supplementary table 2 for additional information). Peripheral blood was collected at the initial diagnosis previously to treatment administration. Mononuclear cells were separated by Ficoll-hypaque (PAA laboratories) density centrifugation and resuspended in IMDM medium (Invitrogen) supplemented with 15% fetal calf serum (FCS) (Hyclone), 100 ng/ml Stem Cell Factor (SCF), 10 ng/ml Interleukin 3 (IL-3) and 25 ng/ml FLT3-L (all purchased from R&D Systems). HL60 and U937 cell lines were a kind gift from J. M. Cayuela (Saint-Louis Hospital, Paris). Cells were cultured in RPMI-1640 medium (Invitrogen) supplemented with 5% FCS and antibiotics.
The ability of iron deprivation to override blockade of AML cells differentiation was tested. In AML cells lines, monocytic markers CD14 and CD11b (which are induced by the vitamin D3 (VD), a monocytic differentiating agent) were induced by iron deprivation by A24 mAb, DFO and DFX. Induction of cell surface markers was accompanied by characteristic cytological modifications of monocytes. Iron deprivation induced cytoplasm enlargement, loss of cytoplasm basophilia and azurophilic granules. […]

c-Jun, c-Fos = assay: c-Jun and c-Fos expression in HL60 cells; format: cell-based; settings: VD 250 nM, A24 10 μg/ml, DFO 5 μM, DFX 3 μM
Procedure: FIG. 4 depicts the change in c-Jun expression following treatment of HL60 cells with vitamin D3 (VD, 250 nM), A24 (A24, 10 μg/ml), deferoxamine (DFO, 5 μM) or deferasirox (DFX, 3 μM).
FIG. 5 depicts the c-Fos and c-Jun mRNA levels (evaluated by quantitative RT-PCR and normalized to GAPDH mRNA levels) in HL60 cells treated for 48 h with A24 (A24, 10 μg/ml); deferoxamine (DFO, 5 μM); or deferasirox (DFX, 3 μM) (mean±SEM, n=4).
Total RNA was extracted using Nucleospin RNA II (Macherey-Nagel). Following DNAse treatment, first-strand cDNA was synthesized using a SuperScript II reverse transcriptase (Invitrogen). Quantitative real-time PCR was performed with a Chromo-IV PCR System (MJ Research) and PCR products were quantified using SybrGreen Technology (Jumpstart mastermix, Sigma Aldrich). Results of real-time quantitative PCR were interpreted using the delta-delta Ct method (Livak et al. (2001) Methods 25:402-408). The complete list of primer sequences used is available in supplementary data section, table 4.
By comparing (with a non-supervised analysis) the pattern of genes induced by VD and iron-chelating agents, a high similarity was found among modulated genes. Thirty of the 105 genes modulated by iron deprivation were shared with VD modified genes. This finding underscores the potential similarities between both differentiation approaches. […]

[1] = test system: squamous cell carcinoma and prostatic adenocarcinoma; settings: in vitro; cited from earlier work

O=C(O)c1ccc(-n2nc(-c3ccccc3O)nc2-c2ccccc2O)cc1 [DFX, 4-[3,5-bis(2-hydroxyphenyl)-[1,2,4]triazol-1-yl]benzoic acid]
number of genes modulated by the three different agents (HL60): 105 | monocytic markers CD14 and CD11b (AML cells lines): induced

CC(=O)N(O)CCCCCNC(=O)CCC(=O)N(O)CCCCCNC(=O)CCC(=O)N(O)CCCCCN [DFO]
number of genes modulated by the three different agents (HL60): 105

C=C1CC[C@H](O)C/C1=C/C=C1\CCC[C@]2(C)[C@@H]([C@H](C)CCCC(C)C)CC[C@@H]12 [VD, cholecalciferol]
markers of granulocyte differentiation / neutrophils (ELA2, PRTN3, CLC, AZU) (HL60; HL60, gene expression): down-regulated | markers of monocytes or activated macrophages (SERPINB8, ITGB2, TREML2, ITGAM) (HL60; HL60, gene expression): up-regulated | similarity of genes targeted by iron deprivation with VD (HL60; genome screening): 30% | genes of the 105 modulated by iron deprivation shared with VD modified genes (HL60; non-supervised analysis): Thirty | monocytic markers CD14 and CD11b (AML cells lines): induced | c-Jun gene expression (c-Jun, c-Fos): induced

C=C1/C(=C\C=C2/CCC[C@]3(C)[C@@H]([C@H](C)CCCC(C)(C)O)CC[C@@H]23)C[C@@H](O)C[C@@H]1O [calcitriol, 1α,25-dihydroxycholecalciferol D3]
antiproliferative activity [1]: exhibits antiproliferative activity
